Test results: patent EP1769804B1, “hPTH(1-34) for use in preventing or reducing the incidence or severity of vertebral and / or non vertebral fracture in a male human” (priority 1998, dated 2012)
Marks after values point to notes of the source that are not given here.

Key:
Ovariectomized Primates = test: Biomechanical measures of cortical bone of the humerus midshaft; type: in vivo, Macaca fascicularis; details: for Fy / S (stiffness) / t (average cortical thickness): humerus midshaft, mean ± SEM
Text: Biomechanical tests were done on lumbar vertebrae L-3 to L-4, the femur neck, humerus midshaft, and on a cortical bone specimen machined from the femur diaphysis (measures defined in Table 2). Conventional static and dynamic histomorphometry were done (measures described in Table 6) on the humerus midshaft, lumbar vertebra L-2, femoral neck, femur midshaft, the radius midshaft and distal radius. Initial statistical analyses compared all groups to vehicle-treated ovariectomized controls. The data is suitable for additional exploratory analyses to examine dose dependency, effects of withdrawal, interactions between outcomes, and changes in time by methods known to those of skill in the art. All assays were conducted and determined by methods known in the art.

post-menopausal women = test: Clinical trial: number and severity of vertebral fractures (spine x-ray); type: in vivo, Humans
[1] = tested on: L-5 vertebra from cynomolgus monkeys; test: QCT and 3D finite element modeling of L-5 vertebra; type: in vivo; details: for low BMD, percentage of L5 vertebral volume: 0-300 mg/cc; for low BMD, percentage of L5 vertebral volume / medium BMD, percentage of L5 vertebral volume / high BMD, percentage of L5 vertebral volume / cortical BMD, percentage of L5 vertebral volume: mean±SEM; for medium BMD, percentage of L5 vertebral volume: 300-700 mg/cc; for high BMD, percentage of L5 vertebral volume: 700-1000 mg/cc; for cortical BMD, percentage of L5 vertebral volume: >1000 mg/cc; for vertebral effective strain: finite element model, distributed load of 100 N
Experimental: These studies determined 3D finite element modeling data on vertebra from monkeys of the study dosed with PTH for 18 months. Excised L-5 vertebra in 50% ethanol/saline from the ovariectomized (n=7) and PTH (n=7) groups were serially scanned in 500 µm steps by quantitative computed tomography (QCT, Norland, Ft. Atkinson, WI), using 70x70 µm pixels. Each of the 500 µm cross-sections was analyzed for volumetric bone mineral density (BMD, mg/cc), bone mineral content (BMC, mg), cross-sectional area (X-Area), cancellous bone volume (BV/TV), trabecular thickness (Tb.Th), and connectivity (node density, strut analysis). Pixels in each serial scan were averaged to create 490x490x500 µm voxels. The serial scans were then stacked and a triangular surface mesh generated for each bone using the "marching cubes" algorithm (see e.g. Lorensen and Cline 1987 "Marching cubes, a high resolution 3D surface construction algorithm." Computer Graphics 21, 163-169). A smoothed version of each surface mesh was then used to generate a tetrahedral mesh for 3D finite-element modeling.
Young's modulus for each tetrahedral element was derived from the original voxel densities and material properties from a beam of cortical bone milled from the femoral diaphysis of the monkeys. Each tetrahedral mesh was rotated so that the bottom surface of each vertebra was aligned with a plane. Linear elastic stress analysis was then performed for each L-5 model in which a distributed load of 100 N was applied to the top surface of the centrum, perpendicular to the bottom plane while the bottom surface was fixed in the direction of loading. The resulting axial strain contours were evaluated, as were the BMD distributions, and compared between PTH and ovariectomized. At this resolution, the density of each voxel is dependent on the extent to which each voxel is filled with bone as opposed to soft tissue.

[2] = tested on: ovariectomized cynomolgus primates; test: Bone mass by DXA and pQCT in the primate study; type: in vivo, Macaca fascicularis
Text: All animals were euthanized after 18 months.

[3] = compared to ovariectomized controls
[4] = PTH1-W: withdrawal after 1 µg/kg for 12 months
[5] = PTH5-W: withdrawal after 5 µg/kg for 12 months
[6] = 20 µg/day PTH compared to placebo
[7] = 40 µg/day PTH compared to placebo
[8] = all PTH treated patients compared with placebo
[9] = PTH-W, after withdrawal of PTH for 6 months
[10] = PTH for 18 months compared to ovariectomized

teriparatide [rhPTH(1-34)]
measures in the cortical diaphysis of the humerus midshaft (Ovariectomized Primates; [3]): did not alter
Fy (Ovariectomized Primates; [4]): 689 ± 23 N
S (stiffness) (Ovariectomized Primates; [4]): 573 ± 20 N/mm
t (average cortical thickness) (Ovariectomized Primates; [4]): 1.66 ± 0.04 mm
Fy (Ovariectomized Primates; PTH1: 1 µg/kg for 18 months): 654 ± 23 N
S (stiffness) (Ovariectomized Primates; PTH1: 1 µg/kg for 18 months): 544 ± 23 N/mm
t (average cortical thickness) (Ovariectomized Primates; PTH1: 1 µg/kg for 18 months): 1.68 ± 0.03 mm
Fy (Ovariectomized Primates; [5]): 707 ± 24 N
S (stiffness) (Ovariectomized Primates; [5]): 573 ± 24 N/mm
t (average cortical thickness) (Ovariectomized Primates; [5]): 1.72 ± 0.05 mm
Fy (Ovariectomized Primates; PTH5: 5 µg/kg for 18 months): 680 ± 15^a N
S (stiffness) (Ovariectomized Primates; PTH5: 5 µg/kg for 18 months): 548 ± 18 N/mm
t (average cortical thickness) (Ovariectomized Primates; PTH5: 5 µg/kg for 18 months): 1.80 ± 0.04^a mm
Number of patients with 2 or more new vertebral fractures (post-menopausal women; 20 µg/day PTH (n=444)): 5
Number of patients with new moderate to severe fractures (post-menopausal women; 20 µg/day PTH (n=444)): 4
Number of patients with new vertebral fractures (post-menopausal women; 20 µg/day PTH (n=444)): 22
percentage of patients with 2 or more new vertebral fractures (post-menopausal women; 20 µg/day PTH (n=444)): (1.1%)
percentage of patients with new moderate to severe fractures (post-menopausal women; 20 µg/day PTH (n=444)): (0.9%)
percentage of patients with new vertebral fractures (post-menopausal women; 20 µg/day PTH (n=444)): (5.0%)
reduction in number of patients with moderate to severe vertebral fractures (post-menopausal women; [6]): 90%
reduction in number of patients with multiple vertebral fractures (post-menopausal women; [6]): 77%
reduction in number of patients with vertebral fractures (post-menopausal women; [6]): 65%
Number of patients with 2 or more new vertebral fractures (post-menopausal women; 40 µg/day PTH (n=434)): 3
Number of patients with new moderate to severe fractures (post-menopausal women; 40 µg/day PTH (n=434)): 9
Number of patients with new vertebral fractures (post-menopausal women; 40 µg/day PTH (n=434)): 19
percentage of patients with 2 or more new vertebral fractures (post-menopausal women; 40 µg/day PTH (n=434)): (0.7%)
percentage of patients with new moderate to severe fractures (post-menopausal women; 40 µg/day PTH (n=434)): (2.1%)
percentage of patients with new vertebral fractures (post-menopausal women; 40 µg/day PTH (n=434)): (4.4%)
reduction in number of patients with moderate to severe vertebral fractures (post-menopausal women; [7]): 78%
reduction in number of patients with multiple vertebral fractures (post-menopausal women; [7]): 86%
reduction in number of patients with vertebral fractures (post-menopausal women; [7]): 69%
reduction in number of patients with moderate to severe vertebral fractures (post-menopausal women; [8]): 84%
reduction in number of patients with multiple vertebral fractures (post-menopausal women; [8]): 81%
reduction in number of patients with vertebral fractures (post-menopausal women; [8]): 67%
reduction in the number of patients with moderate or severe fractures (post-menopausal women; summary): 78%
reduction of the number of patients with prior vertebral fractures who suffered new vertebral fractures (post-menopausal women; summary): more than 66%
reduction of the number of patients with prior vertebral fractures who suffered new, multiple vertebral fractures (post-menopausal women; summary): more than 78%
low BMD, percentage of L5 vertebral volume ([1]; PTH for 18 months): 17.7±1.6 %
low BMD, percentage of L5 vertebral volume [1, 9]: 22.4±1.3 %
medium BMD, percentage of L5 vertebral volume ([1]; PTH for 18 months): 58.9±1.9 %
medium BMD, percentage of L5 vertebral volume [1, 9]: 49.7±1.2%
high BMD, percentage of L5 vertebral volume ([1]; PTH for 18 months): 22.8±2.7%
high BMD, percentage of L5 vertebral volume [1, 9]: 27.0±1.6 %
cortical BMD, percentage of L5 vertebral volume ([1]; PTH for 18 months): 0.6±0.3%
cortical BMD, percentage of L5 vertebral volume [1, 9]: 0.8±0.2%
BMC at the midlevel of the L5 vertebra ([1]; PTH for 18 months): 47.4 ± 1.5 mg
greater Tb.N, centrum [1, 10]: 37%
greater node density (node/tissue volume) [1, 10]: 140%
greater node-to-node struts [1, 10]: 286%
increase in BMC, middle 500 µm slice of L-5 [1, 10]: 27%
increase in BMD, middle 500 µm slice of L-5 [1, 10]: 21%
increase in BV/TV, centrum [1, 10]: 73%
increase in Tb.Th, centrum [1, 10]: 30%
reduction of average mechanical strain in the vertebra ([1]; PTH treatment, vs OVX): 36%
BMC at the midlevel of the L5 vertebra [1, 9]: 44.2 ± 1.2 mg
average mechanical strain in the vertebra below OVX ([1]; after withdrawal of PTH): 23%
vertebral effective strain ([1]; PTH for 18 months): 447±36 ustrain
vertebral effective strain [1, 9]: 539±34 ustrain
increase of whole body bone mineral content (BMC) compared to baseline ([2]; 18 months, DXA): up to 6%
overall skeletal bone mass, expressed as total body BMC ([2]; Fig. 1): increased significantly
proximal tibia BMC and BMD [2, 3]: increased BMC and BMD
BMD of the midshaft or distal radius ([2]; pQCT): did not alter
increase of cross-sectional area of the midshaft ([2]; radius midshaft, PTH5 group): 7%
